Experimental data reported in patent US20100297109A1, “METHODS FOR INHIBITING FASCIN” (Cornell University, priority 2007, published 2010).

Tested on: MDA-MB-231 human breast tumor cells
Assay: Experimental lung metastasis of MDA-MB-231 cells in NOD-SCID mice, bioluminescence imaging
Assay type: in vivo, mouse
Details: 10 mg/kg I.P. every other day for seven weeks
Description: Breast Tumor Metastasis in Mice. All animal work was performed in compliance with the Institutional Animal Care and Use Committee of the Weill Medical College. Spontaneous 4T1 mouse breast tumor metastasis assay was done as described previously (Shan et al. 2005). NOD-SCID immunodeficient mice were used for experimental lung metastasis experiments. MDA-MB-231 human breast tumor cells expressing the TGL reporter were trypsinized and washed with PBS. This artificial TGL reporter gene encodes a triple fusion protein with herpes simplex virus 1 thymidine kinase fused to the N-terminus of enhanced GFP and firefly luciferase fused to the C-terminus of GFP (Ponomarev et al. 2004). Subsequently 1×10^6 cells in 0.2 ml PBS were injected into the lateral tail vein. […] Three randomly selected fields (10×objectives) on the lower side of the insert were photographed, and the cells on the lower surface of the insert were counted.
Third, the experimental metastasis model with MDA-MB-231 human tumor cells in immunodeficient mice was used to investigate the role of fascin in tumor metastasis and the effect of macroketone on the metastasis of human tumors in mice (FIG. 8 E-H). […] GFP-positive cells were enriched by fluorescence-activated cell sorting. […] The metastasis of tumor cells to the lung was monitored by non-invasive bioluminescence imaging (Minn et al. 2005). […]

## COC1C=CCCCCC(=O)CCC(C)=CC(C)C1O (stereo not shown) [macroketone, Migrastatin ketone]
  reduction of metastasis of MDA-MB-231 cells (photon flux): > 80%
